Reference: PubChem BioAssay (NCI)
“And” between values parts separate entries of the source, which are not always exact repeats. Equal entries are not always repeated.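 1) Cells in 96-well plates. 2) Compound, 48 h, 5 concentrations. 3) Linear interpolation between surrounding doses. 4) Unreached endpoint = highest concentration. GI50: concentration for 50% inhibition of growth. Definition used: TGI = concentration required for complete inhibition of growth.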

Columns and labels:
Assay in all cases: NCI anticancer screen, dose series, 48 h
786-0 renal = test system: 786-0 renal
A498 renal = test system: A498 renal
A549 NSCLC = test system: A549 NSCLC
ACHN renal = test system: ACHN renal
BT-549 breast = test system: BT-549 breast
CAKI-1 renal = test system: CAKI-1 renal
CCRF-CEM leukemia = test system: CCRF-CEM leukemia
COLO 205 colon = test system: COLO 205 colon
DU-145 prostate = test system: DU-145 prostate
EKVX NSCLC = test system: EKVX NSCLC
HCC-2998 colon = test system: HCC-2998 colon
HCT-116 colon = test system: HCT-116 colon
HCT-15 colon = test system: HCT-15 colon
HL-60(TB) leukemia = test system: HL-60(TB) leukemia
HOP-62 NSCLC = test system: HOP-62 NSCLC
HOP-92 NSCLC = test system: HOP-92 NSCLC
HS 578T breast = test system: HS 578T breast
HT29 colon = test system: HT29 colon
IGROV1 ovarian = test system: IGROV1 ovarian
K-562 leukemia = test system: K-562 leukemia
KM12 colon = test system: KM12 colon
LOX IMVI melanoma = test system: LOX IMVI melanoma
M14 melanoma = test system: M14 melanoma
MALME-3M melanoma = test system: MALME-3M melanoma
MCF7 breast = test system: MCF7 breast
MDA-MB-231 breast = test system: MDA-MB-231 breast
MDA-MB-435 = test system: MDA-MB-435
MOLT-4 leukemia = test system: MOLT-4 leukemia
NCI-H226 lung = test system: NCI-H226 lung

Question: What does the source list for `COC(=O)/C=C/c1cc(O)c2c(c1)C(C(=O)OC)C(c1ccc(O)c(O)c1)O2` (stereo not given)?
Answer: GI50 (786-0 renal): 626 nM; TGI (786-0 renal): > 56300 nM; GI50 (A498 renal): 2850 nM and 735 nM; TGI (A498 renal): 16300 nM and 6210 nM; GI50 (A549 NSCLC): 4950 nM and 1110 nM; TGI (A549 NSCLC): 61900 nM and 23700 nM; GI50 (ACHN renal): 183 nM and 67.6 nM; TGI (ACHN renal): 43600 nM and > 82300 nM; GI50 (BT-549 breast): 127 nM and 103 nM; TGI (BT-549 breast): 39800 nM and 5390 nM; GI50 (CAKI-1 renal): 644 nM and 393 nM; TGI (CAKI-1 renal): > 100000 nM; GI50 (CCRF-CEM leukemia): 89.2 nM; TGI (CCRF-CEM leukemia): 22500 nM and > 100000 nM; GI50 (COLO 205 colon): 4190 nM and 2490 nM; TGI (COLO 205 colon): 29000 nM and 12300 nM; GI50 (DU-145 prostate): 372 nM and 53 nM; TGI (DU-145 prostate): > 100000 nM; GI50 (EKVX NSCLC): 851 nM and 418 nM; TGI (EKVX NSCLC): 78500 nM and > 100000 nM; GI50 (HCC-2998 colon): 1530 nM and 558 nM; TGI (HCC-2998 colon): 72700 nM and > 46900 nM; GI50 (HCT-116 colon): 104 nM and 40.5 nM; TGI (HCT-116 colon): > 100000 nM; GI50 (HCT-15 colon): 99.1 nM; TGI (HCT-15 colon): 68800 nM and > 100000 nM; GI50 (HL-60(TB) leukemia): 84.5 nM and 29.8 nM; TGI (HL-60(TB) leukemia): 164 nM and 106 nM; GI50 (HOP-62 NSCLC): 493 nM and 137 nM; TGI (HOP-62 NSCLC): > 72400 nM and 46500 nM; TGI (HOP-92 NSCLC): > 55000 nM and 9300 nM; GI50 (HS 578T breast): 468 nM and 61.4 nM; TGI (HS 578T breast): > 100000 nM; GI50 (HT29 colon): 3890 nM and 1750 nM; TGI (HT29 colon): > 57600 nM and 24100 nM; GI50 (IGROV1 ovarian): 822 nM and 509 nM; TGI (IGROV1 ovarian): 33800 nM and > 79500 nM; GI50 (K-562 leukemia): < 41.9 nM and 46.2 nM; TGI (K-562 leukemia): > 100000 nM; GI50 (KM12 colon): 395 nM; TGI (KM12 colon): 20700 nM and 16600 nM; GI50 (LOX IMVI melanoma): 170 nM and 63.3 nM; TGI (LOX IMVI melanoma): 36000 nM and > 67100 nM; GI50 (M14 melanoma): 131 nM and 27.9 nM; TGI (M14 melanoma): > 41300 nM; GI50 (MALME-3M melanoma): 12500 nM and 17700 nM; TGI (MALME-3M melanoma): 62000 nM and 86100 nM; GI50 (MCF7 breast): 33.7 nM; TGI (MCF7 breast): 82100 nM and > 100000 nM; GI50 (MDA-MB-231 breast): 192 nM and 308 nM; TGI (MDA-MB-231 breast): 18200 nM and 47100 nM; TGI (MDA-MB-435): 51.3 nM; GI50 (MOLT-4 leukemia): 120 nM and 55.3 nM; TGI (MOLT-4 leukemia): 25300 nM and 27800 nM; GI50 (NCI-H226 lung): 2930 nM and 3860 nM
